What was measured:
Format in all cases: cell-based
[1] = system: Rat neonatal cardiomyocytes; experiment: ATP assay (CellTiter-Glo) in serum-starved cardiomyocytes; conditions: 500 μM peptide, 1 d
Description: Rat neonatal cardiomyocytes were incubated with PBS (control), 500 μM QHREDGS, scrambled QHREDGS peptide, GRGDSP peptide or 400 nM ang 1 or ang2 in DMEM/0.5% BSA/cytosine-β-D-arabinofuranoside (37° C., 5% CO2, 1 d). ATP levels were quantified using the CellTiter-Glo Luminescent Assay (Promega) as per manufacturer's instructions (N=6/group). Luminescence was measured using a Wallac 1420 microplate reader.

[2] = system: Rat neonatal cardiomyocytes; experiment: Hydrogen peroxide treatment, Trypan blue viability (monolayer); conditions: 500 μM peptide 1.5 hr, 100 μM H2O2 10 min, FIG. 5A
Description: Rat neonatal cardiomyocytes were incubated for 1.5 hr with 500 μM QHREDGS, scrambled (scram) QHREDGS peptide (DGQESHR), or PBS control (PBS); 200 nM ang 1 or its matched buffer control [0.1% bovine serum albumin (BSA) in PBS] in the culture medium. The culture medium consisted of Dulbecco's Modified Eagle's Medium (DMEM) with 0.5% BSA and cytosine-β-D-arabinofuranoside (anti-proliferative). Reactive oxygen species were increased by addition of 100 μM H2O2 for 10 min (37° C., 5% CO2) (N=6/group). Cell viability was measured using a Trypan blue stain. Trypan blue dye is impermeable to viable cells, but enters dead/damaged cells with impaired membrane integrity, staining cells blue.

human iPS cells BJ1D = experiment: iPS cell dose-response, CFDA-Live/PI-Dead live cell count; conditions: 50 μM soluble peptide, passage 5, vs PBS, p=0.028, FIG. 10
Description: The human iPS cells (BJ1D and 0901B) were obtained from the Ontario iPSC Facility and used following the hiPS cell research guidelines of the University of Toronto as described by Hotta et al. Nat. Protoc. 4, 1828-1844 (2009)), unless specified otherwise. Cells were cultured on a feeder layer of MEF cells (Mount Sinai Hospital Toronto, inactivated with 10 μg/ml mitomycin C and seeded at 1.8×10^5 per 3.5 cm dish). For single cell cultures, hiPS cell colonies were dissociated in 0.25% Trypsin-EDTA (Invitrogen) for 5 min, followed by trituration with a pipette. To ensure a single-cell suspension, the dissociated cells were passed through a 40 μm cell strainer (BD Falcon) and seeded onto MEF plates at 10 cells/ml, 10 cm plates. Cells were allowed to grow for 7 days and the total number of colonies was counted. […] Cells were analyzed after 5 passages in continuous treatment with 50 μM QHREDGS, 50 μM DGQESHR, or PBS, unless specified otherwise.
Human iPS cells were treated for 5 passages and stained for CFDA-Live/PI-Dead as described in Rask et al. J. Biomed. […] Live cells were counted using the cell counter plug in for ImageJ Immunohistochemistry was performed as described above (Rask et al., ibid). […]
To determine the optimal concentration of QHREDGS for iPSC expansion, a dose-response experiment was performed. […] Live cells were counted using the cell counter plug in for ImageJ.

## QHREDGS (angiopoietin 1 peptide)
[1]
  cardiac myocyte ATP levels: substantially increased
[2]
  cardiomyocyte viability after exposure to H2O2: maintain cardiomyocyte viability
Human iPS cells BJ1D
  number of viable human iPS cells: significant increase
